Assay results: US7015312B1, “Antibodies to the protein product encoded by ORF3 of the TRP-1 gene and compositions and kits thereof” (The United States of America as represented by the …, priority 1996, dated 2006)
“Also recorded” adds a separate entry of the source.

Columns and labels:
Assay type in all cases: cell-based, human
TIL586 [1] = experiment: Cytotoxic lysis of peptide-pulsed target cells by TIL586, 4-h chromium release assay; settings: for % Specific lysis (E:T 20:1): 586EBV cells pulsed with peptide 1 μg/ml, TIL586 E:T 20:1, 4-h chromium release; for Sensitization of peptide-pulsed 586EBV B cells for lysis by TIL586 (in words): peptide pulsed onto 586EBV B cells
Experimental: 586EBV B cells were incubated with ORF3P (pep) (—▴—), with an irrelevant peptide (ipep) (—●—) without peptide (—Δ—) and T2 cells pulsed with ORF3P (—∘—) as marked. After incubation, TIL586 was added and mixed with the target cells. Cytolytic activity of TIL586 was measured in a 4 h chromium release assay.
586EBV cells were separately incubated with serial dilutions of ORF3P (pep) (—▴—) or irrelevant peptides (ipep) (—●—) and T2 cells with the ORF3P (peptide (—∘—) for 90 min. The cytolytic activity of TIL586 was evaluated in a 4h […] release assay at an effector: target (E:T) ratio of 40:1.
(§1) Cytolytic assays was done as previously described (Kawakami, Y et al., 1994, Proc. Natl. Acad. Sci. USA 91:6458–62). Briefly, the target cells were labeled with chromium for 90 min. After washing three times, the cells were incubated with peptides at a concentration of 1 μg/ml for 90 min. The cells were washed again, counted, and then mixed with TIL586 at the indicated ratio of effector : targets (E:T). Chromium release was measured after 4 h incubation. The peptides were synthesized by a solid-phase method using a peptide synthesizer (Model AMS 422, Gibson Co., Inc., Worthington, Ohio). Some peptides were purified by HPLC and had greater than 98% in purity. For titration of the ORF3P peptide recognized by TIL586, 586EBV B cells were incubated with various concentrations of the purified ORF3P peptide. Percentage of specific lysis was determined from the equation (A-B)/(C-B)×100 where A is lysis of 586EBV B cells by TIL586 in the presence of a peptide, B is spontaneous release from 586EBV B cells in presence of the same peptide but in the absence of effector cells, and C is the maximum chromium release.

TIL586 [2] = experiment: GM-CSF release by TIL586 co-incubated with peptide-pulsed target cells; design: GM-CSF release: unit not given here; settings: for GM-CSF release: 586EBV cells pulsed with peptide 1 μg/ml for 90 min, co-incubated with TIL586, TIL586 alone subtracted; for Recognition by TIL586 / stimulation of GM-CSF release (in words): peptide pulsed onto 586EBV B cells (A31+)
Experimental: Transfection and cytokine assays were performed as FIG. 1A and b. 586mel and 397mel were included as positive and negative controls for the reactivity of TIL586. The ORF3P peptide was incubated with 586EBV (A31+) and T2 (non-A31) cells at a concentration of 1 μg/ml for 90 min.
The following chemicals and reagents were purchased from the sources indicated: RPMI 1640, AIM-V media, Lipofectamine, G418 (GIBCO BRL, Gaithersberg, Md.); the eukaryotic expression vector pCR3 (Invitrogen, San Diego, […] containing 120 IU/ml of IL-2. TIL586 was added and incubated for additional 18–24 h, 100 μl of supernatant was collected for GM-CSF assay.

TIL586 [3] = experiment: as above
[4] = tested on: T cell clones from TIL586; experiment: GM-CSF release by T cell clones generated from the TIL586 cell line; settings: six T cell clones, GM-CSF assay, 18–24 h
Experimental: FIGS. 6A–6D show recognition of the antigenic peptide T cell clones from the TIL586 cell line. T cell clones were generated from the TIL586 cell line. 586EBV B cells were pulsed with the ORF3P peptide or irrelevant peptide. T cell clone or TIL586 cells were added and coincubated. For 586 mel, 397 mel/A31^+ tumors and melanocyte NHEM680 cells, 1×10^5 cells per well were incubated with 1×10^5 cells clones, TIL586-C1 (FIG. 6A), TIL586-C4 (FIG. 6B) and TIL586-C6 (FIG. 6C) or TIL586 (FIG. 6D) for 18–24 h, respectively. GM-CSF assay was performed as described in FIG. 1B.
To address the question of whether TIL586 recognized a naturally processed peptide which is similar or identical to the ORF3P peptide on the tumor cells, the ability of the ORF3P peptide pulsed 586EBV B cells to inhibit lysis of ^51Cr-labeled 586mel in a cold-target inhibition assay was examined. […] To further test if T cell clones can recognize both the ORF3P peptide pulsed 586EBV B cells and tumor cell lines, T cell clones were generated from the TIL586 cell line by limiting dilution (1 cell/well in 96-well round bottom microplate) and further expanded in culture. […] T cell clones were further expanded in AIM-V medium containing 6000 IU/ml IL-2. […]

TIL1200 = experiment: Cold target inhibition of lysis of 51Cr-labeled 624mel by TIL1200; settings: TIL1200 (gp100, HLA-A2), E:T 30:1, 4 h
Experimental: “Cold” and “hot” target cells were mixed at the indicated ratios. TIL1200 was added at an effector: hot target (E:T) ratio of 30:1. Cytolytic activity of TIL1200 was evaluated in a 4-h ^51Cr release assay.
as §1, with “release. […]” for “release.”

TIL586 [5] = experiment: Cold target inhibition of lysis of 51Cr-labeled 586mel by TIL586; settings: TIL586, E:T 20:1, 4 h
Experimental: 586EBV cells pulsed with ORF3P (—▴—), with irrelevant peptide (—Δ—) and T2 cells loaded with ORF3P (—□—) were used as “cold” target cells. After washing, “hot” and “cold” target cells were counted again and mixed at the “cold”/“hot” ratio of 1:1, 5:1, 10:1, and 20:1. TIL586 was added at an effector; “hot” target (E:T) ratio of 20:1. Chromium release was measured after 4 h incubation.
as §1, with “For titration of the ORF3P peptide recognized by TIL586, 586EBV B cells were incubated with various concentrations of the purified ORF3P peptide.” left out, “release. […]” for “release.”

[6] = 586EBV cells, TIL586 E:T 40:1, 4 h

Sequence	% Specific lysis (E:T 20:1) (TIL586 [1])	GM-CSF release (TIL586 [2])	Recognition by TIL586 / stimulation of GM-CSF release (in words) (TIL586 [2])	also measured
AACDQRVLIVR (listed as Homo sapiens) [synthetic peptide from ORF1 (gp75)]	<10%	250	very weakly induced GM-CSF release	Sensitization of target cells for lysis by TIL586 at high peptide concentration (TIL586 [1]; 10 μg/ml of peptide, data not shown): did not sensitize the target cells for lysis; Sensitization of peptide-pulsed 586EBV B cells for lysis by TIL586 (in words) (TIL586 [1]): failed to sensitive peptide-loaded 586EBV B for lysis by TIL586; Peptide concentration needed for weak stimulation of cytokine release from TIL586 (TIL586 [3]; incubated with 586EBV B cells): > 1 µg/mL
ACDQRVLIVR (listed as Homo sapiens) [synthetic peptide from ORF1 (gp75)]	<10%	<50	–	–
ACDQRVLIVRR (listed as Homo sapiens) [synthetic peptide from ORF1 (gp75)]	<10%	<50	–	–
AISQDTTVGR (listed as Homo sapiens) [synthetic peptide from ORF1 (gp75)]	<10%	<50	–	–
CGTCRPGWR (listed as Homo sapiens) [synthetic peptide from ORF1 (gp75)]	<10%	<50	–	–
DDREVWPLR (listed as Homo sapiens) [synthetic peptide from ORF1 (gp75)]	<10%	<50	–	–
DQRVLIVRR (listed as Homo sapiens) [synthetic peptide from ORF1 (gp75)]	<10%	<50	–	–
ISLQRQFLR (listed as Homo sapiens)	–	–	still recognized by TIL586 at comparable concentrations to that of the wild-type peptide	–
IVRRNLLDLSK (listed as Homo sapiens) [synthetic peptide from ORF1 (gp75)]	<10%	<50	–	–
LSKEEKNHFVR (listed as Homo sapiens) [synthetic peptide from ORF1 (gp75)]	<10%	<50	–	–
LWDVPSWLER (listed as Homo sapiens)	<10%	<50	–	–
MALQRQFLR (listed as Homo sapiens) [modified ORF3P, substitution Ser with Ala at position 2]	–	–	recognized	–
MLLQRQFLR (listed as Homo sapiens) [modified ORF3P, anchor residue substitution]	–	–	did not recognize	–
MRLQRQFLR (listed as Homo sapiens) [modified ORF3P, anchor residue substitution]	–	–	did not recognize	–
MSLQRLFLR (listed as Homo sapiens) [modified ORF3P, anchor residue substitution]	–	–	did not recognize	–
MSLQRQFLE (listed as Homo sapiens) [modified ORF3P, anchor residue substitution]	–	–	did not recognize	–
MSLQRQFLK (listed as Homo sapiens) [modified ORF3P, anchor residue substitution]	–	–	did not recognize	–
MSLQRQFLR (listed as Homo sapiens) [ORF3P, antigenic nonamer peptide derived from ORF3 of the gp75 (TRP-1) gene]	–	–	strongly recognized by TIL586; also recorded: significantly increased	Peptide concentration at which lytic activity was still detected (TIL586 [1]; [6]): 1 nM; Peptide concentration giving maximal sensitization for lysis (TIL586 [1]; [6]): 100 nM; Lysis by TIL586 of T2 cells pulsed with peptide (TIL586 [1]; T2 (non-A31) cells pulsed with peptide): failed to lyse; Sensitization of peptide-pulsed 586EBV B cells for lysis by TIL586 (in words) (TIL586 [1]): lysed; Recognition of peptide-pulsed 586EBV B cells by T cell clones from TIL586 [4]: capable of recognizing; also recorded: recognized by six T cell clones derived from TIL586; Inhibition of lysis of 51Cr-labeled 624mel by cold peptide-pulsed 586EBV B cells (TIL1200): did not inhibit; Recognition by TIL586 / GM-CSF release, peptide on T2 cells (TIL586 [2]; peptide loaded onto T2 (non-HLA-A31) cells): not when peptide was loaded onto T2 (non-HLA-A31) cells; Inhibition of lysis of 51Cr-labeled 586mel by cold peptide-pulsed 586EBV B cells (TIL586 [5]): Significant inhibition; Recognition by TIL586 / GM-CSF release, peptide on 1510EBV cells (TIL586 [3]; peptide pulsed onto allogeneic 1510EBV B (A31+) cells): observed only when the peptide was pulsed onto autologous 586EBV B cells and 1510EBV B (A31+) cells; also recorded: significantly increased
MSLQRQFLRT (listed as Homo sapiens) [peptide from ORF3]	–	–	did not recognize	–
SGHNCGTCR (listed as Homo sapiens) [synthetic peptide from ORF1 (gp75)]	<10%	<50	–	–
SLQRQFLRT (listed as Homo sapiens) [peptide from ORF3]	–	–	did not recognize	–
VWPLRFFNR (listed as Homo sapiens) [synthetic peptide from ORF1 (gp75)]	<10%	<50	–	–
